Source: patent US9199981B2 (NOVARTIS AG, priority 2011, dated 2015)

Molecular target: c-kit (Homo sapiens (Human), UniProt P10721)
Assay: Mo7e cell proliferation assay (SCF dependent proliferation)
Assay type: cell-based
Settings: Mo7e cells stimulated with human recombinant SCF, 48 hours, 1% FBS
Protocol: Compounds of Formula (I) and Formula (II) provided herein were assayed to measure their capacity to inhibit c-kit and PDGFR kinases using the appropriate assay described below: c-Kit inhibition was evaluated using the Mo7e cell proliferation assay, and PDGFR inhibition was evaluated using the Rat A10 cell proliferation assay and the Human TG/HA-VSMC cell proliferation assay.
Mo7e Cell Proliferation Assay
The compounds of Table 1 and Table 2 were tested for inhibition of SCF dependent proliferation using human Mo7e cells which endogenously express c-kit in a 384 well format. […] After 48 hours of incubation at 37° C., cell viability was measured by adding 25 uL of CellTiter Glo (Promega) to the cells and the luminescence was measured by a CLIPR CCD camera (Molecular Devices).
The IC50 value is given as that concentration of the test compound in question that provoke a response halfway between the baseline and maximum responses.

Chain of c-kit (P10721 26-976): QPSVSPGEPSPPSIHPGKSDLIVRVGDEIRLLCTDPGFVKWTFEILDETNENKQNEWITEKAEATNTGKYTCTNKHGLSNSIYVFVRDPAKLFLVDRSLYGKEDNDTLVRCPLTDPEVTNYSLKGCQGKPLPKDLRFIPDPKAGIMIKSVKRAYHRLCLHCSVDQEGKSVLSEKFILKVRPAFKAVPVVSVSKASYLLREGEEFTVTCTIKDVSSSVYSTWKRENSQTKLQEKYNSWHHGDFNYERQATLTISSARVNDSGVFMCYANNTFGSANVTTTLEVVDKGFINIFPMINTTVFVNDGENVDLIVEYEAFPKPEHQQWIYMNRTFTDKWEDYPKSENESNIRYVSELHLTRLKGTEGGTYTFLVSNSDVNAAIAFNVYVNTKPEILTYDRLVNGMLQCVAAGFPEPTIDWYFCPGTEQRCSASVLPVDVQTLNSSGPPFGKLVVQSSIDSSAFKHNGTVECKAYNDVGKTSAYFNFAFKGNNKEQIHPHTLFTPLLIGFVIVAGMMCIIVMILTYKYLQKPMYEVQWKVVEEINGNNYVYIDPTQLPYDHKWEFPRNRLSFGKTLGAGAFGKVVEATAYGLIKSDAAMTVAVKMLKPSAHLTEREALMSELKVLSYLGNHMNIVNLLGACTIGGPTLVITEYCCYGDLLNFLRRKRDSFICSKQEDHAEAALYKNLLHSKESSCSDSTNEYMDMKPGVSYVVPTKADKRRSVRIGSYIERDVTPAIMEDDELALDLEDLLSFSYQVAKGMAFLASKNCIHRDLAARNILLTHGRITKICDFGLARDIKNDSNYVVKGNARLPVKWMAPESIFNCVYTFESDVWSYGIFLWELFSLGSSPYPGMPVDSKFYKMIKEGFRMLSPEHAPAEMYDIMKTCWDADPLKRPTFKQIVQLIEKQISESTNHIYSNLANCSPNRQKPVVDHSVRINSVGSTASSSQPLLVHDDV

Point of comparison: `[2H]c1c([2H])c([2H])n2c(C(=O)Nc3cc(-c4noc(C5CC(F)(F)C5)n4)ccc3C)cnc2c1[2H]` [F92], IC50 35 nM. Against it:
- Cc1ccc(-c2noc(C3CC(F)(F)C3)n2)cc1NC(=O)c1cnc2cc(C3CCN(S(C)(=O)=O)CC3)ccn12 [F49, N-(5-(5-(3,3-difluorocyclobutyl)-1,2,4-oxadiazol-3-yl)-2-methylphenyl)-7-(1-(methylsulfonyl)piperidin-4-yl)imidazo[1,2-a]pyridine-3-carboxamide] — within 1.5-fold, 33 nM
- Cc1ccc(-c2noc(C3CC(F)(F)C3)n2)cc1NC(=O)c1cnc2cc(-c3cn(CCO)nn3)ccn12 [F66, N-(5-(5-(3,3-difluorocyclobutyl)-1,2,4-oxadiazol-3-yl)-2-methylphenyl)-7-(1-(2-hydroxyethyl)-1H-1,2,3-triazol-4-yl)imidazo[1,2-a]pyridine-3-carboxamide] — 2.2-fold lower, 16 nM
- COCCN[C@H]1C[C@@H](c2nc(-c3ccc(C)c(NC(=O)c4cnc5ccccn45)c3)no2)C1 [F133] — 13-fold higher, 451 nM
- COCc1ccc2ncc(C(=O)Nc3cc(-c4noc(C5CC(F)(F)C5)n4)ccc3C)n2c1 [F39] — within 1.5-fold, 37 nM
- Cc1ccc(-c2noc(C3CC(F)(F)C3)n2)c(C)c1NC(=O)c1cnc2ccccn12 [F160] — 8.4-fold higher, 293 nM
- COCCOCc1ccc2ncc(C(=O)Nc3cc(-c4noc(C5CC(F)(F)C5)n4)ccc3C)n2c1 [F164] — 2.9-fold higher, 101 nM
- COCC1(c2nc(-c3ccc(C)c(NC(=O)c4cnc5ccccn45)c3)no2)CC1 [F20] — within 1.5-fold, 49 nM
- Cc1ccn2c(C(=O)Nc3cc(-c4noc([C@H]5C[C@](O)(C(F)(F)F)C5)n4)ccc3C)cnc2c1 [F89] — within 1.5-fold, 25 nM
- COC(=O)NC1(c2nc(-c3ccc(C)c(NC(=O)c4cnc5ccccn45)c3)no2)CC(F)(F)C1 [F175, methyl (3,3-difluoro-1-(3-(3-(imidazo[1,2-a]pyridine-3-carboxamido)-4-methylphenyl)-1,2,4-oxadiazol-5-yl)cyclobutyl)carbamate] — 2.1-fold higher, 73 nM
- Cc1ccc(-c2noc(C3CC(F)(F)C3)n2)cc1NC(=O)c1cnc2ccc(CN3CCN(C)CC3)cn12 [F144] — 7.1-fold higher, 249 nM
- CC(=O)CCc1ccc2ncc(C(=O)Nc3cc(-c4noc(C5CC(F)(F)C5)n4)ccc3C)n2c1 [F53, N-(5-(5-(3,3-difluorocyclobutyl)-1,2,4-oxadiazol-3-yl)-2-methylphenyl)-6-(3-oxobutyl)imidazo[1,2-a]pyridine-3-carboxamide] — within 1.5-fold, 45 nM
- Cc1ccc(-c2noc([C@H]3C[C@H](NS(C)(=O)=O)C3)n2)cc1NC(=O)c1cnc2ccccn12 [F129] — 4.1-fold higher, 143 nM
- O=C(Nc1cc(-c2noc(C3CCC3)n2)ccc1F)c1cnc2ccccn12 [F152] — 4.3-fold higher, 151 nM
- Cc1ccc(-c2noc([C@H]3C[C@@](C)(O)C3)n2)cc1NC(=O)c1cnc2ccc(F)cn12 [F158] — 5-fold higher, 175 nM
- C=C1CC(c2nc(-c3ccc(F)c(NC(=O)c4cnc5ccccn45)c3)no2)C1 [F138] — 2.9-fold higher, 103 nM
- Cc1ccc(-c2noc(C3CC(=CCCO)C3)n2)cc1NC(=O)c1cnc2ccccn12 (stereo not shown) [F32, N-(5-(5-(3-(3-hydroxypropylidene)cyclobutyl)-1,2,4-oxadiazol-3-yl)-2-methylphenyl)imidazo[1,2-a]pyridine-3-carboxamide] — within 1.5-fold, 25 nM
- Cc1ccc(-c2noc([C@@H]3C[C@H]3F)n2)cc1NC(=O)c1cnc2ccccn12 [F113, N-(5-(5-((1S,2R)-2-fluorocyclopropyl)-1,2,4-oxadiazol-3-yl)-2-methylphenyl)imidazo[1,2-a]pyridine-3-carboxamide] — 1.6-fold higher, 56 nM
- Cc1ccc(-c2noc(C3(N)CC3)n2)cc1NC(=O)c1cnc2ccccn12 [F131] — 8.9-fold higher, 311 nM
- Cc1ccc(-c2noc(C3CC(F)(F)C3)n2)cc1NC(=O)c1cnc2ccc(COCCF)cn12 [F83] — within 1.5-fold, 29 nM
- Cc1ccc(-c2noc(C3CC(F)(F)C3)n2)cc1NC(=O)c1cnc2cc(OC(F)F)ccn12 [F149] — 11-fold higher, 378 nM
- Cc1ccc(-c2noc(CNC(=O)OC3(C)CC3)n2)cc1NC(=O)c1cnc2ccccn12 [F26] — 1.7-fold higher, 58 nM
- Cc1ccc(-c2noc(CNC3CC(F)(F)C3)n2)cc1NC(=O)c1cnc2ccccn12 [F34] — 2.2-fold lower, 16 nM
- Cc1ccc(-c2noc(C3CC(F)(F)C3)n2)cc1NC(=O)c1cnc2ccc(-c3nnn[nH]3)cn12 [F173] — higher, > 10000 nM
- Cc1ccc(-c2noc(C3CC(F)(F)C3)n2)cc1NC(=O)c1cnc2ccc(CCN3CCN(C)CC3)cn12 [F63, N-(5-(5-(3,3-difluorocyclobutyl)-1,2,4-oxadiazol-3-yl)-2-methylphenyl)-6-(2-(4-methylpiperazin-1-yl)ethyl)imidazo[1,2-a]pyridine-3-carboxamide] — 2.3-fold higher, 82 nM
- Cc1ccc(-c2noc(C3CC(F)(F)C3)n2)cc1NC(=O)c1cnc2ccc(-n3cncc3C)cn12 [F163] — 4-fold higher, 139 nM
- Cc1ccc(-c2noc(C3CC3(F)F)n2)cc1NC(=O)c1cnc2ccccn12 (stereo not shown) [F64, N-(5-(5-(2,2-difluorocyclopropyl)-1,2,4-oxadiazol-3-yl)-2-methylphenyl)imidazo[1,2-a]pyridine-3-carboxamide] — within 1.5-fold, 52 nM
- Cc1ccc(-c2noc(C3CC(F)(F)C3)n2)cc1NC(=O)c1cnc2ccc(-c3cnn(CCN4CCOCC4)c3)cn12 [F50] — within 1.5-fold, 26 nM
- Cc1ccc(-c2noc([C@H]3C[C@H](N)C3)n2)cc1NC(=O)c1cnc2ccccn12 [F17] — 3.1-fold higher, 109 nM
- Cc1ccc(-c2noc(C3CCC(F)(F)CC3)n2)cc1NC(=O)c1cnc2ccccn12 [F5] — within 1.5-fold, 24 nM
- Cc1ccc(-c2noc(C3CC(=NOCC4CC4)C3)n2)cc1NC(=O)c1cnc2ccccn12 (stereo not shown) [F15] — the same, 35 nM
- COCC1(c2nc(-c3ccc(C)c(NC(=O)c4cnc5ccc(F)cn45)c3)no2)CCC1 [F98] — 2.5-fold higher, 86 nM
- Cc1ccc(-c2noc([C@H]3C[C@@H](O)C3)n2)cc1NC(=O)c1cnc2ccc(F)cn12 [F151] — 5.2-fold higher, 181 nM
- Cc1ccn2c(C(=O)Nc3cc(-c4noc([C@@H]5C[C@H]5F)n4)ccc3C)cnc2c1 [F107] — 2.4-fold higher, 85 nM
- Cc1ccc2ncc(C(=O)Nc3cc(-c4noc(C5CC(F)C5)n4)ccc3C)n2c1 (stereo not shown) [F112] — 1.6-fold higher, 56 nM
- Cc1ccc(-c2noc(C3(F)CCC3)n2)cc1NC(=O)c1cnc2ccccn12 [F166] — 3.2-fold higher, 111 nM
- Cc1ccc(-c2noc(C3CC(F)(F)C3)n2)cc1NC(=O)c1cnc2ccc(-n3ccnc3)cn12 [F82] — 2.2-fold higher, 78 nM
- Cc1ccc(-c2noc(C3(O)CC3)n2)cc1NC(=O)c1cnc2ccccn12 [F148] — 8.7-fold higher, 305 nM
- Cc1ccc(-c2noc(C3CC(F)(F)C3)n2)cc1NC(=O)c1cnc2ccc(-c3cnn(CC(C)(C)O)c3)cn12 [F44] — 5.8-fold lower, 6 nM
- Cc1ccc(-c2noc(C3CC(F)(F)C3)n2)cc1NC(=O)c1cnc2cc(N3CCCC3=O)ccn12 [F76] — within 1.5-fold, 37 nM
- Cc1ccc(-c2noc(C3CC(F)(F)C3)n2)cc1NC(=O)c1cnc2ccc(CCC(C)(C)O)cn12 [F54, N-(5-(5-(3,3-difluorocyclobutyl)-1,2,4-oxadiazol-3-yl)-2-methylphenyl)-6-(3-hydroxy-3-methylbutyl)imidazo[1,2-a]pyridine-3-carboxamide] — within 1.5-fold, 31 nM
- Cc1cc(C)c(-c2noc(C3CC(F)(F)C3)n2)cc1NC(=O)c1cnc2ccccn12 [F67] — within 1.5-fold, 49 nM
- Cc1ccc(-c2noc(C3CC(=NOC(C)C)C3)n2)cc1NC(=O)c1cnc2ccccn12 (stereo not shown) [F16] — 1.9-fold higher, 66 nM
- Cc1ccn2c(C(=O)Nc3cc(-c4noc(C5CC(F)C5)n4)ccc3C)cnc2c1 (stereo not shown) [F111] — within 1.5-fold, 46 nM
- Cc1ccc(-c2noc([C@H]3C[C@@H](N4CCN(C)CC4)C3)n2)cc1NC(=O)c1cnc2ccccn12 [F125] — 11-fold higher, 393 nM
- Cc1ccc(-c2noc(C3CC(F)(F)C3)n2)cc1NC(=O)c1cnc2ccc(-c3ccn(C)n3)cn12 [F43] — 2.9-fold lower, 12 nM
- Cc1ccc(-c2noc(C3CC3)n2)cc1NC(=O)c1cnc2ccccn12 [F104] — 1.6-fold higher, 57 nM
- COC(=O)NC1(c2nc(-c3ccc(C)c(NC(=O)c4cnc5ccccn45)c3)no2)CC1 [F24] — 1.7-fold higher, 58 nM
- CO/N=C1/CCC(c2nc(-c3ccc(C)c(NC(=O)c4cnc5ccccn45)c3)no2)C1 (stereo not shown) [F117] — 5.8-fold higher, 203 nM
- Cc1ccc(-c2noc([C@H]3C[C@@H](OCC(C)(C)O)C3)n2)cc1NC(=O)c1cnc2ccc(F)cn12 [F172] — higher, > 10000 nM
- Cc1ccc(-c2noc([C@H]3C[C@](O)(C(F)(F)F)C3)n2)cc1NC(=O)c1cnc2ccc(F)cn12 [F90] — within 1.5-fold, 40 nM
- Cc1ccc(-c2noc(C3CC(F)C3)n2)cc1NC(=O)c1cnc2ccccn12 (stereo not shown) [F36, N-(5-(5-(3-fluorocyclobutyl)-1,2,4-oxadiazol-3-yl)-2-methylphenyl)imidazo[1,2-a]pyridine-3-carboxamide] — within 1.5-fold, 28 nM
- Cc1ccc(-c2noc(CNC(=O)OC3(C)CC3)n2)cc1NC(=O)c1cnc2cc(C(F)(F)F)ccn12 [F141] — 11-fold higher, 391 nM
- Cc1ccc(-c2nc(C3CC(F)(F)C3)no2)cc1NC(=O)c1cnc2ccccn12 [F1] — within 1.5-fold, 24 nM
- Cc1ccc(-c2noc(C3CC(F)(F)C3)n2)cc1NC(=O)c1cnc2ccc(-c3cn[nH]c3)cn12 [F40, N-(5-(5-(3,3-difluorocyclobutyl)-1,2,4-oxadiazol-3-yl)-2-methylphenyl)-6-(1H-pyrazol-4-yl)imidazo[1,2-a]pyridine-3-carboxamide] — 3.9-fold lower, 9 nM
- Cc1ccc(-c2noc(C3CC(F)(F)C3)n2)cc1NC(=O)c1cnc2ccc(-c3cnn(C)c3)cn12 [F42] — 5-fold lower, 7 nM
- Cc1ccc(-c2noc([C@H]3C[C@@H](N4CCCCC4)C3)n2)cc1NC(=O)c1cnc2ccccn12 [F123] — 9.9-fold higher, 345 nM
- Cc1ccc(-c2noc(C3CC(=NO)C3)n2)cc1NC(=O)c1cnc2ccccn12 (stereo not shown) [F4] — 1.6-fold lower, 22 nM
- Cc1ccc(-c2noc(C3(NC(=O)OC(C)(C)C)CC3)n2)cc1NC(=O)c1cnc2ccccn12 [F21] — 2.5-fold higher, 89 nM
- Cc1ccc(C(=O)NC2CC(F)(F)C2)cc1NC(=O)c1cnc2ccccn12 [F93] — within 1.5-fold, 24 nM

Same assay, conditions: Mo7e cells stimulated with human recombinant SCF, 48 hours, 20% FBS (values marked *)

For `Cc1ccc(-c2noc(C3CC(C)(O)C3)n2)cc1NC(=O)c1cnc2ccccn12` (stereo not shown) [F116], the IC50 was 182 nM.
